We go through two substances from patent US20230060040A1, “USE OF TRANSFERRIN, TRANSFERRIN RECEPTOR AND ANTIBODY THEREOF IN PREPARATION OF ANTI-SARS-CoV-2 DRUG” (KUNMING INSTITUTE OF ZOOLOGY, CHINESE ACADEMY OF SCIENCES, priority 2020, published 2023).

pEC50: −log10 of the molar value. Values joined by “and” are separate entries in the source; they are usually repeats but may differ in a detail not shown here. Equal values may be shown once. Read-outs that look alike come from different tables or passages of the source.

The subject of assay [1] is SARS-CoV-2. Type of assay: cell-based. As to conditions: read-out: EC50 by qRT-PCR. For orientation: In qPCR the cycle at which signal appears reflects the starting amount.
Assay [2] relates to SARS-CoV-2. Type of assay: cell-based.
The test system of assay [3] is SARS-CoV-2. Type of assay: cell-based. Conditions: Vero E6 cells, different concentrations, 48 h.
Assay [4] addresses SARS-CoV-2 spike protein (Severe acute respiratory syndrome coronavirus 2, UniProt P0DTC2). Conditions: SPR, spike protein 3.90625-250 nM, immobilized transferrin receptor.

Usually pEC50 stands for the negative decadic logarithm of the EC50, by convention in mol/L. “transferrin receptor: transferrin receptor protein purchased from Sino Biological, catalog number 11020-H07H”: the negative logarithm of the EC50 (pEC50) is 7.03 and 7.30 in assay [1]; 7.10 in assay [2] (read-out: EC50 by CPE analysis). For the same substance, in assay [3], the “inhibition of SARS-CoV-2 infection” value was “could inhibit SARS-CoV-2 infection”. Also, in assay [4], the “binding of SARS-CoV-2 spike protein to transferrin receptor” value was “strong binding capacity”.

For “transferrin: main iron-containing plasma single-chain glycoprotein, purchased from Sigma, catalog number T4382”, the pEC50 in assay [1] is 6.80; in assay [2] (read-out: EC50 by CPE analysis), 6.90; in assay [2] (read-out: EC50 calculated by CPE), 7.10 and 7.30. Besides, the “inhibition of SARS-CoV-2 infection” value in assay [3] was “could inhibit SARS-CoV-2 infection”.
